From the supplement of paper PMC4862054

Key:
Conditions in all cases: incubation time: 72 h
[1] = test system: SK-BR-3; assay: normalised viability (% of control), CellTiter-Blue; higher = more viable cells (about 100 = DMSO control)
Summary of the method: (§1)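 Plates were quality-checked by Z'-factor and normalised to vehicle (100) and a positive kill control (0). The underlying assay incubated breast cancer cell lines for 72 h on 384-well plates with compound, then added 2.5 µl CellTiter-Blue for 2 h at 37 °C and read at 560/590 nm. The value is normalised viability at a single listed concentration of the series.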

[2] = test system: BT-474; assay: as above
Summary of the method: as §1

[3] = test system: MDA-MB-468; assay: as above
Summary of the method: as §1

[4] = test system: CAL-85-1; assay: as above
Summary of the method: as §1

[5] = test system: Hs578T; assay: as above
Summary of the method: as §1

[6] = test system: MDA-MB-453; assay: as above
Summary of the method: as §1

[7] = test system: HDQ-P1; assay: as above
Summary of the method: as §1

[8] = test system: CAL-120; assay: as above
Summary of the method: as §1

[9] = test system: DU-4475; assay: drug sensitivity score (DSS), CellTiter-Glo (DSS (AUC-based score)); higher = stronger drug effect (viability inhibition or cytotoxicity); extreme values may be limits of the assay
Summary of the method: (§2)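 The area under the fitted dose-response curve was used to calculate the drug sensitivity score. Cells from breast cancer lines were incubated for 72 h in 384-well plates with compound at 5 concentrations spaced 10-fold over a 10,000-fold range specific to each compound. Plates were read for CellTox Green and then CellTiter-Glo, and normalised to 0.1 % DMSO and a positive kill control.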

[10] = test system: SK-BR-3; assay: as above
Summary of the method: as §2

[11] = test system: BT-474; assay: as above
Summary of the method: as §2

[12] = test system: MDA-MB-468; assay: as above
Summary of the method: as §2

[13] = test system: CAL-85-1; assay: as above
Summary of the method: as §2

[14] = test system: Hs578T; assay: as above
Summary of the method: as §2

[15] = test system: MDA-MB-231; assay: as above
Summary of the method: as §2

[16] = test system: CAL-51; assay: as above
Summary of the method: as §2

[17] = test system: HCC1143; assay: as above
Summary of the method: as §2

[18] = test system: CAL-148; assay: as above
Summary of the method: as §2

[19] = test system: MDA-MB-436; assay: as above
Summary of the method: as §2

[20] = test system: BT-549; assay: as above
Summary of the method: as §2

[21] = test system: MFM-223; assay: as above
Summary of the method: as §2

[22] = test system: MDA-MB-453; assay: as above
Summary of the method: as §2

[23] = test system: HDQ-P1; assay: as above
Summary of the method: as §2

[24] = test system: HCC1599; assay: as above
Summary of the method: as §2

[25] = test system: MCF-10A; assay: as above
Summary of the method: as §2

[26] = test system: HCC1937; assay: as above
Summary of the method: as §2

[27] = test system: CAL-120; assay: as above
Summary of the method: as §2

SMILES	normalised viability ([1]; 10 nM)	normalised viability ([2]; 10 nM)	normalised viability ([3]; 10 nM)	normalised viability ([4]; 1 nM)	normalised viability ([5]; 10 nM)	normalised viability ([6]; 1 nM)	normalised viability ([7]; 1 nM)	normalised viability ([8]; 10 nM)	drug sensitivity score [9]	drug sensitivity score [10]	drug sensitivity score [11]	drug sensitivity score [12]	drug sensitivity score [13]	drug sensitivity score [14]	drug sensitivity score [15]	drug sensitivity score [16]	drug sensitivity score [17]	drug sensitivity score [18]	drug sensitivity score [19]	drug sensitivity score [20]	drug sensitivity score [21]	drug sensitivity score [22]	drug sensitivity score [23]	drug sensitivity score [24]	drug sensitivity score [25]	drug sensitivity score [26]	drug sensitivity score [27]	normalised viability ([1]; 100 nM)	normalised viability ([2]; 100 nM)	normalised viability ([3]; 100 nM)	normalised viability ([4]; 10 nM)	normalised viability ([5]; 100 nM)	normalised viability ([6]; 10 nM)	normalised viability ([7]; 10 nM)	normalised viability ([8]; 100 nM)
CC(C)(C)c1cc(NC(=O)Nc2ccc(-c3cn4c(n3)sc3cc(OCCN5CCOCC5)ccc34)cc2)no1 [Quizartinib]	91%	94.6%	104%	101%	69.5%	99%	91.8%	94.4%	0	0	0	0	0	0	0	0	0	0	0	0	0	0	0	0	0	0	0	–	–	–	–	–	–	–	–
O=C(c1ccc(OCCN2CCCCC2)cc1)c1c(-c2ccc(O)cc2)sc2cc(O)ccc12 [Raloxifene]	–	–	–	–	–	–	–	–	0	0	0.666	2.72	1.62	0	0	0	0	0	0	0	1.56	0	0	1.37	0	0	0	115%	107%	105%	101%	104%	107%	90.2%	102%
Cn1c(=O)c(F)c(Nc2ccc(I)cc2F)c2c(=O)n(C[C@@H](O)CO)cnc21 [TAK-733]	99.4%	123%	91.5%	107%	86.8%	123%	118%	92.7%	25.4	0	6.85	3.59	6.4	0	3.88	8.36	0	0	1.27	0.999	0.644	0	10.1	0	18.5	3	4.39	–	–	–	–	–	–	–	–
CCS(=O)(=O)c1cccc(-c2cc(C(=O)NC3CCN(C)CC3)c(C)c3[nH]c4ncc(C)cc4c23)c1 [TAK-901]	97.3%	113%	105%	98%	131%	99.1%	114%	86.8%	0	0	6.57	12.3	0	1.14	7.63	0	4.84	0	2.45	6.76	5.76	0	3.52	0	7.18	0	4.67	–	–	–	–	–	–	–	–
CCCC(CCC)C(=O)O [Valproic acid]	–	–	–	–	–	–	–	–	0	0	0	0	0	0	0	1.6	0	0	0	0	0	1.51	0	0	0	0	0	95%	113%	115%	95.7%	111%	94.4%	139%	110%
